Where a name gives a salt, the structure may show the parent alone.
Compound | melting point
CCN(CC)C1C2CCC1CC(N1CCN(C(=O)CC3=C(C(=O)OC)C(c4c(Cl)cccc4Cl)C(C(=O)OC)=C(CCc4nccs4)N3)CC1)C2 (stereo not shown) (as salt: HCl) [Example 12, Dimethyl 4-(2,6-dichlorophenyl)-2-[2-[4-(8-(diethylamino)bicyclo [3.2.1]oct-3-yl)-1-piperazinyl]-2-oxoethyl]-6-[2-(1,3-thiazol-2-yl)ethyl]-1,4-dihydro-3,5-pyridinedicarboxylate] | 200 to 205 °C (dec.)
COC(=O)C1=C(CCc2nccs2)NC(CC(=O)N2CCN(CC3(CN)CCCC3)CC2)=C(C(=O)OC)C1c1c(Cl)cccc1Cl (stereo not shown) [Example 17, Dimethyl 2-[2-[4-[[1-(aminomethyl)cyclopentyl]methyl]-1-piperazinyl]-2-oxoethyl]-4-(2,6-dichlorophenyl)-6-[2-(1,3-thiazol-2-yl)ethyl]-1,4-dihydro-3,5-pyridinedicarboxylate] | 161 to 164 °C
CCNCC1(C2CCN(C(=O)CC3=C(C(=O)OC)C(c4c(Cl)cccc4Cl)C(C(=O)OC)=C(CCc4nccs4)N3)CC2)CCCCC1 (stereo not shown) (as salt: HCl) [Example 45, Dimethyl 4-(2,6-dichlorophenyl)-2-[2-[4-[1-[(ethylamino)methyl]cyclohexyl]-1-piperidinyl]-2-oxoethyl]-6-[2-(1,3-thiazol-2-yl)ethyl]-1,4-dihydro-3,5-pyridinedicarboxylate] | 162 to 163 °C (dec.)
COC(=O)C1=C(CCc2nccs2)NC(CC(=O)N2CCN(CCC3(C(N)=O)CCCC3)CC2)=C(C(=O)OC)C1c1c(Cl)cccc1Cl (stereo not shown) (as salt: HCl) [Example 43, Dimethyl 2-[2-[4-[2-[1-(aminocarbonyl)cyclopentyl]ethyl]-1-piperazinyl]-2-oxoethyl]-4-(2,6-dichlorophenyl)-6-[2-(1,3-thiazol-2-yl)ethyl]-1,4-dihydro-3,5-pyridinedicarboxylate] | 158 to 163 °C (dec.)
COC(=O)C1=C(CCc2nccs2)NC(CC(=O)N2CCN(CC3(N)CCCCC3)CC2)=C(C(=O)OC)C1c1c(Cl)cccc1Cl (stereo not shown) (as salt: HCl) [Example 6, Dimethyl 2-[2-[4-[(1-aminocyclohexyl)methyl]-1-piperazinyl]-2-oxoethyl]4-(2,6-dichlorophenyl)-6-[2-(1,3-thiazol-2-yl)ethyl]-1,4-dihydro-3,5-pyridinedicarboxylate] | 210 to 220 °C (dec.)
COC(=O)C1=C(CCc2nccs2)NC(CC(=O)N2CCN(CCCN3C(=O)CCC3C)CC2)=C(C(=O)OC)C1c1c(Cl)cccc1Cl (stereo not shown) (as salt: HCl) [Example 29, Dimethyl 4-(2,6-dichlorophenyl)-2-[2-[4-[3-(2-methyl-5-oxo1-pyrrolidinyl)propyl]-1-piperazinyl]-2-oxoethyl]-6-[2-(1,3-thiazol-2-yl)ethyl]-1,4-dihydro-3,5-pyridinedicarboxylate] | 188 to 193 °C (dec.)
COC(=O)C1=C(CCc2nccs2)NC(CC(=O)N2CCN(C3CCC(N4CCCC4=O)CC3)CC2)=C(C(=O)OC)C1c1c(Cl)cccc1Cl (stereo not shown) (as salt: HCl) [Example 23, Dimethyl 4-(2,6-dichlorophenyl)-2-[2-oxo-2-[4-[4-(2-oxo-1-pyrrolidinyl)cyclohexyl]-1-piperazinyl]ethyl]-6-[2-(1,3-thiazol-2-yl)ethyl]-1,4-dihydro-3,5-pyridinedicarboxylate] | 182 to 184 °C (dec.)
COC(=O)C1=C(CCc2nccs2)NC(CC(=O)N2CCC(C3(CNC(C)=O)CCCCC3)CC2)=C(C(=O)OC)C1c1c(Cl)cccc1Cl (stereo not shown) [Example 44, Dimethyl 2-[2-[4-[1-[(acetylamino)methyl]cyclohexyl]-1-piperidinyl]-2-oxoethyl]-4-(2,6dichlorophenyl)-6-[2-(1,3-thiazol-2-yl)ethyl]-1,4dihydro-3,5-pyridinedicarboxylate] | 114 to 116 °C (dec.)
COC(=O)C1=C(CCc2nccs2)NC(CC(=O)N2CCN(CCCN3CCC(C)C3=O)CC2)=C(C(=O)OC)C1c1c(Cl)cccc1Cl (stereo not shown) [Example 30, Dimethyl 4-(2,6-dichlorophenyl)-2-[2-[4-[3-(3-methyl-2-oxo-1-pyrrolidinyl)propyl]-1-piperazinyl]-2-oxoethyl]-6-[2-(1,3-thiazol-2-yl)ethyl]-1,4-dihydro-3,5pyridinedicarboxylate] | 175 to 178 °C (dec.)
COC(=O)C1=C(CCc2nccs2)NC(CC(=O)N2CCN(CC3(CN)CCCCC3)CC2)=C(C(=O)OC)C1c1c(Cl)cccc1Cl (stereo not shown) (as salt: HCl) [Example 2, Dimethyl 2-[2-[4-[[1-(aminomethyl)cyclohexyl]methyl]-1-piperazinyl]-2-oxoethyl]-4-(2,6-dichlorophenyl)-6-[2-(1,3-thiazol-2-yl)ethyl]-1,4-dihydro-3,5-pyridinedicarboxylate] | 206 to 210 °C (dec.)
